{
  "source": "paper PMC3969223",
  "about": "“Characterization of WZ4003 and HTH-01-015 as selective inhibitors of the LKB1-tumour-suppressor-activated NUAK kinases” (Biochemical Journal, 2013)",
  "experiment_in_all_cases": "Kinase profiling",
  "format_in_all_cases": "biochemical",
  "details_in_all_cases": "0.1 or 1 μM inhibitor; mean of triplicate",
  "key": {"EPH-A2": {"biological_target": "EPH-A2 (Homo sapiens, UniProt P29317)", "outline": "(§1)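 Each kinase of a 140-member panel was assayed in vitro in the presence of 0.1 or 1 μM inhibitor, and activity was expressed as a percentage of DMSO control reactions. Triplicate reactions were averaged, reported ±S.D.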"}, "PLK1": {"biological_target": "PLK1 (Homo sapiens, UniProt P53350)"}, "IKKβ": {"biological_target": "IKKβ (Homo sapiens, UniProt O14920)", "outline": "as §1"}, "MARK2": {"biological_target": "MARK2 (Homo sapiens, UniProt Q7KZI7)", "outline": "as §1"}, "ERK5": {"biological_target": "ERK5 (Homo sapiens, UniProt Q13164)", "outline": "as §1"}, "JNK2": {"biological_target": "JNK2 (Homo sapiens, UniProt P45984)", "outline": "as §1"}, "RSK1": {"biological_target": "RSK1 (Homo sapiens, UniProt Q15418)", "outline": "as §1"}, "DYRK2": {"biological_target": "DYRK2 (Homo sapiens, UniProt Q92630)", "sequence (Q92630 whole entry)": "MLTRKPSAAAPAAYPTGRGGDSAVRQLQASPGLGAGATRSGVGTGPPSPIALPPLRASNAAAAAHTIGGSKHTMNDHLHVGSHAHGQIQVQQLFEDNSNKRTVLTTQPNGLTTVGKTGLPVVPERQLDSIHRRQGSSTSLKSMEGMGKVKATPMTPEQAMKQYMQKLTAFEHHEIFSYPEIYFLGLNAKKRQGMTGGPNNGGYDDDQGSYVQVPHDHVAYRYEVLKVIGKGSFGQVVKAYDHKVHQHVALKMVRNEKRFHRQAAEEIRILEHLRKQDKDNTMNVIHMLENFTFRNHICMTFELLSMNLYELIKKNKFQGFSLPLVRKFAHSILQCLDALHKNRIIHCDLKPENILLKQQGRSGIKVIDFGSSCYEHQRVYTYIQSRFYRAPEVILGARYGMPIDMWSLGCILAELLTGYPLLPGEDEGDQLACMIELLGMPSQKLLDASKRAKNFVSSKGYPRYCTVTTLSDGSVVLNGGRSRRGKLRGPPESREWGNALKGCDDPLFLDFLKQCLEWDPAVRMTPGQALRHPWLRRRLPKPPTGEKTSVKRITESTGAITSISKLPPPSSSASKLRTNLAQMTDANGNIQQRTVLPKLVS", "outline": "as §1"}, "DDR2": {"biological_target": "DDR2 (Homo sapiens, UniProt Q16832)", "outline": "as §1"}, "JNK1": {"biological_target": "JNK1 (Homo sapiens, UniProt P45983)"}, "OSR1": {"biological_target": "OSR1 (Homo sapiens, UniProt O95747)", "sequence (O95747 whole entry)": "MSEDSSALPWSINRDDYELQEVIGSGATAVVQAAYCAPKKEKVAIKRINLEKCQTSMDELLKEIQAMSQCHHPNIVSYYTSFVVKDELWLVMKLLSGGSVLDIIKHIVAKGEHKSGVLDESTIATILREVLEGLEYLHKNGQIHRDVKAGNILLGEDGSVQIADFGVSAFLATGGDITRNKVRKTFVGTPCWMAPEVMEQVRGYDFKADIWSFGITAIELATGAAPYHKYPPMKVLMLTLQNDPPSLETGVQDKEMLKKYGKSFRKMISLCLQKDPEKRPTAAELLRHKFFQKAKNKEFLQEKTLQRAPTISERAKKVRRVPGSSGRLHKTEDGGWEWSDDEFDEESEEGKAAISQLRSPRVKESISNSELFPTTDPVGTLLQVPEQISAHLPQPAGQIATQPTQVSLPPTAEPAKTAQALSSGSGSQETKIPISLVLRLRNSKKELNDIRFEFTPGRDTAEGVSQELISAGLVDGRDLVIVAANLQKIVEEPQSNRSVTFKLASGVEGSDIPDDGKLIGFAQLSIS", "outline": "as §1"}, "ERK8": {"biological_target": "ERK8 (Homo sapiens, UniProt Q8TD08)", "outline": "as §1"}, "TBK1": {"biological_target": "TBK1 (Homo sapiens, UniProt Q9UHD2)", "sequence (Q9UHD2 whole entry)": "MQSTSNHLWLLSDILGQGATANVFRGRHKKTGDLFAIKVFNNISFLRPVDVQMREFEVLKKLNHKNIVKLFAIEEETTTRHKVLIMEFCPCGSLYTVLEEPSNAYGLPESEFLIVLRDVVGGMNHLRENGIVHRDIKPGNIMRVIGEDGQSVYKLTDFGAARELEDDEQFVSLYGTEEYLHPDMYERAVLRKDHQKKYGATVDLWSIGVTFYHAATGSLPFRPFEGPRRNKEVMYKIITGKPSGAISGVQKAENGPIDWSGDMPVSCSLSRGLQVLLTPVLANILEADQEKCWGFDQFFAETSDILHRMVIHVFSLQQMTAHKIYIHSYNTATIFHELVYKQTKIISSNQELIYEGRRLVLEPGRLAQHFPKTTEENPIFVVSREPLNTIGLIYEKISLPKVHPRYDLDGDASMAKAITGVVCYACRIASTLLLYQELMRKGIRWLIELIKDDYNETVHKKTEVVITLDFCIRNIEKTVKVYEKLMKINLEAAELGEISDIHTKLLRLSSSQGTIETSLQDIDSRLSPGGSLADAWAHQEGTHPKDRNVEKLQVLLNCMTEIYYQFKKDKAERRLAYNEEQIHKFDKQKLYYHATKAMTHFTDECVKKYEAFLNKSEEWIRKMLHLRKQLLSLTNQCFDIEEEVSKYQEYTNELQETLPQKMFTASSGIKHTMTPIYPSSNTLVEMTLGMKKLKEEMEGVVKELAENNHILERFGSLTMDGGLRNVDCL", "outline": "as §1"}, "CK1δ": {"biological_target": "CK1δ (Homo sapiens, UniProt P48730)", "outline": "as §1"}, "SYK": {"biological_target": "SYK (Homo sapiens, UniProt P43405)", "outline": "as §1"}, "HIPK2": {"biological_target": "HIPK2 (Homo sapiens, UniProt Q9H2X6)", "outline": "as §1"}, "Lck": {"biological_target": "Lck (Homo sapiens, UniProt P06239)", "outline": "as §1"}, "EPH-B4": {"biological_target": "EPH-B4 (Homo sapiens, UniProt P54760)", "sequence (P54760 16-987)": "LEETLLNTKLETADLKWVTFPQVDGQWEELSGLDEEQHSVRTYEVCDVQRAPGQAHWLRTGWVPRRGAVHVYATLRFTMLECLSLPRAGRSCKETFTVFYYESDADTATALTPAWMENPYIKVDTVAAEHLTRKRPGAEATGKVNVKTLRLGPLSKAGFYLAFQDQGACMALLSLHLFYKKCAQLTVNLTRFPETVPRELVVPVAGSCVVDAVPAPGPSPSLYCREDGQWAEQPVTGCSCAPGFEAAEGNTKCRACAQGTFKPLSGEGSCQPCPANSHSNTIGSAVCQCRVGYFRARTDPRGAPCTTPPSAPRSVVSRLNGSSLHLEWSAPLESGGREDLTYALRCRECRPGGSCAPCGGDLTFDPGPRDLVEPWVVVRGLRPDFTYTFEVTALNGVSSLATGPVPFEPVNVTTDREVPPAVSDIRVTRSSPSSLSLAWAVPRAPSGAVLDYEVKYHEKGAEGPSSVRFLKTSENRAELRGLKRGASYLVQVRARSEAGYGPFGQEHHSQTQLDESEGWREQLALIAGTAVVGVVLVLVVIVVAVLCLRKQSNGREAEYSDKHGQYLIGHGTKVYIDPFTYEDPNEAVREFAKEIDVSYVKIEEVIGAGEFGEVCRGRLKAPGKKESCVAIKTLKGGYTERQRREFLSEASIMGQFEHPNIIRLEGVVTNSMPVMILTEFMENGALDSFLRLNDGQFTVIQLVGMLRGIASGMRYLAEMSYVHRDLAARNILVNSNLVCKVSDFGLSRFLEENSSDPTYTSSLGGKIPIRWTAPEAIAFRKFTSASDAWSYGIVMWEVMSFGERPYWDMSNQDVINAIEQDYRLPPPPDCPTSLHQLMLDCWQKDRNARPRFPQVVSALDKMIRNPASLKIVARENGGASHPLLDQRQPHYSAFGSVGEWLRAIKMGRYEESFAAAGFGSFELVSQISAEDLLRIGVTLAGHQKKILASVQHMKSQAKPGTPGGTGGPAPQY"}, "PAK4": {"biological_target": "PAK4 (Homo sapiens, UniProt O96013)", "sequence (O96013 whole entry)": "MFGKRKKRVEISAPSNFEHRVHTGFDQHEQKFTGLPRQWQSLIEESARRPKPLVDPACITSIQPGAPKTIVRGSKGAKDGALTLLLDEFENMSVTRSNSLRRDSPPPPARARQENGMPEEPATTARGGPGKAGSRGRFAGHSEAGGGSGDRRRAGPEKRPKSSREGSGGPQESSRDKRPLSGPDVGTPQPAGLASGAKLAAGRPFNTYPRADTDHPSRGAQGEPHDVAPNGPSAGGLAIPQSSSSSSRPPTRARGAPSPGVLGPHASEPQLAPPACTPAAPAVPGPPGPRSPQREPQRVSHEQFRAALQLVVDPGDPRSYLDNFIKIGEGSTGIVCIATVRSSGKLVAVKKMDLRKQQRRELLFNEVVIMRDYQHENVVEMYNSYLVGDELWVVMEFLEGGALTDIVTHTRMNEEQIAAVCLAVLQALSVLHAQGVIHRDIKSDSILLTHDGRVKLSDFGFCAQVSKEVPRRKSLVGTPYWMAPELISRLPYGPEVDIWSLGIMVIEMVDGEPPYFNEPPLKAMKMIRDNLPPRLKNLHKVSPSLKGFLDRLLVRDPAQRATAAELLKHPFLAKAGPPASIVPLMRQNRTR"}, "p38δ MAPK": {"biological_target": "p38δ MAPK (Homo sapiens, UniProt O15264)", "outline": "as §1"}, "p38α MAPK": {"biological_target": "p38α MAPK (Homo sapiens, UniProt Q16539)", "outline": "as §1"}, "BRSK2": {"biological_target": "BRSK2 (Homo sapiens, UniProt Q8IWQ3)", "sequence (Q8IWQ3 whole entry)": "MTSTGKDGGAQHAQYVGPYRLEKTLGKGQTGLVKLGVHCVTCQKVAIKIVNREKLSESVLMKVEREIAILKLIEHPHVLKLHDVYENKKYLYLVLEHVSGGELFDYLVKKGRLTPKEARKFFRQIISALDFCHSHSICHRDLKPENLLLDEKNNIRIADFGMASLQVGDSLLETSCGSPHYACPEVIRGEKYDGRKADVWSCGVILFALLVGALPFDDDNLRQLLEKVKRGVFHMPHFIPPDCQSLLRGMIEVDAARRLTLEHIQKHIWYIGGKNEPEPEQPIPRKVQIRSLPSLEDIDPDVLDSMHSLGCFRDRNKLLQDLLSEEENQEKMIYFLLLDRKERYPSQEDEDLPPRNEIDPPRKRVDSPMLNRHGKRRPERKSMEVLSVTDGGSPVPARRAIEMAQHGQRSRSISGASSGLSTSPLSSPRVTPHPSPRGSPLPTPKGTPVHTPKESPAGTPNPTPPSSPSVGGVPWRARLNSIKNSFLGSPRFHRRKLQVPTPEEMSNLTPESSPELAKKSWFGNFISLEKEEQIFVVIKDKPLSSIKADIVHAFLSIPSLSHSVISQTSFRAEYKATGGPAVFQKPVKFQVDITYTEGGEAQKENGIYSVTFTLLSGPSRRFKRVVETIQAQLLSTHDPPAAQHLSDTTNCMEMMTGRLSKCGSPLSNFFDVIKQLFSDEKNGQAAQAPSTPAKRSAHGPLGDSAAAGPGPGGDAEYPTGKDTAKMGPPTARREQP", "outline": "as §1"}, "CHK1": {"biological_target": "CHK1 (Homo sapiens, UniProt O14757)", "outline": "as §1"}, "IRAK1": {"biological_target": "IRAK1 (Homo sapiens, UniProt P51617)", "outline": "as §1"}, "PKCα": {"biological_target": "PKCα (Homo sapiens, UniProt P17252)", "outline": "as §1"}, "PKD1": {"biological_target": "PKD1 (Homo sapiens, UniProt Q15139)", "outline": "as §1"}, "PDGFRA": {"biological_target": "PDGFRA (Homo sapiens, UniProt P16234)", "outline": "as §1"}, "MELK": {"biological_target": "MELK (Homo sapiens, UniProt Q14680)", "outline": "as §1"}, "PIM1": {"biological_target": "PIM1 (Homo sapiens, UniProt P11309)", "sequence (P11309 whole entry)": "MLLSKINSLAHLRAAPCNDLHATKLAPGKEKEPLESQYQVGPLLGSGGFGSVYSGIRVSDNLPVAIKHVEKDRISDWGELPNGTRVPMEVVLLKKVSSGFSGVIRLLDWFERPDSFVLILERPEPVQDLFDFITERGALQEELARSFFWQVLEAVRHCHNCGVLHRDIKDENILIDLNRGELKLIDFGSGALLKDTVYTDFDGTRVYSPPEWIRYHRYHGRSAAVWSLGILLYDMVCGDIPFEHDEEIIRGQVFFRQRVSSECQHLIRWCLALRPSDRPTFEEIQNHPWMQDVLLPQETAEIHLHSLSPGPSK"}, "PKA": {"biological_target": "PKA (Homo sapiens, UniProt P17612)", "outline": "as §1"}, "MSK1": {"biological_target": "MSK1 (Homo sapiens, UniProt O75582)", "outline": "as §1"}, "MLK3": {"biological_target": "MLK3 (Homo sapiens, UniProt Q16584)", "outline": "as §1"}, "TTBK2": {"biological_target": "TTBK2 (Homo sapiens, UniProt Q6IQ55)", "outline": "as §1"}, "CLK2": {"biological_target": "CLK2 (Homo sapiens, UniProt P49760)", "outline": "as §1"}, "PAK5": {"biological_target": "PAK5 (Homo sapiens, UniProt Q9P286)", "outline": "as §1"}, "CDK2-Cyclin A": {"biological_target": "CDK2-Cyclin A (Homo sapiens, UniProt P24941)", "outline": "as §1"}, "S6K1": {"biological_target": "S6K1 (Homo sapiens, UniProt P23443)", "outline": "as §1"}, "MST3": {"biological_target": "MST3 (Homo sapiens, UniProt Q9Y6E0)", "sequence (Q9Y6E0 whole entry)": "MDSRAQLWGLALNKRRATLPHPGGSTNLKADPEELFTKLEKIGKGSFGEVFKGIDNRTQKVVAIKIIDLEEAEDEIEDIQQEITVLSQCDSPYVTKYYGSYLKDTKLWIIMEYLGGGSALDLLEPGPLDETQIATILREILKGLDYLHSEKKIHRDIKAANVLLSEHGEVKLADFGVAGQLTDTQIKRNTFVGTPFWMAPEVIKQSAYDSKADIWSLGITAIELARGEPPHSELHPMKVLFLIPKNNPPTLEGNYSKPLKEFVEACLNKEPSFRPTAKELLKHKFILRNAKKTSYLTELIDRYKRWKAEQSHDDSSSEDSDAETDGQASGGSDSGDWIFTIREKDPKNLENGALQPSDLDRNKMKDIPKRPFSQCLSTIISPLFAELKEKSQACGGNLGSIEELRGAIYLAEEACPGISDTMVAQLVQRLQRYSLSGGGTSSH"}, "STK33": {"biological_target": "STK33 (Homo sapiens, UniProt Q9BYT3)", "outline": "as §1"}, "TAK1": {"biological_target": "TAK1 (Homo sapiens, UniProt O43318)", "outline": "as §1"}, "GCK": {"biological_target": "GCK (Homo sapiens, UniProt Q12851)"}, "ULK2": {"biological_target": "ULK2 (Homo sapiens, UniProt Q8IYT8)", "outline": "as §1"}},
  "data": [
    {"smiles": "Cc1nc(Nc2cnn(C3CCNCC3)c2)nc2c1N(C)C(=O)c1cc3ccccc3cc1N2C", "note": "[HTH-01-015]", "values": [
      {"measurement": "EPH-A2 activity, percentage of DMSO control", "setting": "EPH-A2", "result": 84, "unit": "percentage"},
      {"measurement": "PLK1 activity, percentage of DMSO control", "setting": "PLK1", "result": 98, "unit": "percentage"},
      {"measurement": "IKKβ activity, percentage of DMSO control", "setting": "IKKβ", "result": 81, "unit": "percentage"},
      {"measurement": "MARK2 activity, percentage of DMSO control", "setting": "MARK2", "result": 99, "unit": "percentage"},
      {"measurement": "ERK5 activity, percentage of DMSO control", "setting": "ERK5", "result": 121, "unit": "percentage"},
      {"measurement": "JNK2 activity, percentage of DMSO control", "setting": "JNK2", "result": 130, "unit": "percentage"},
      {"measurement": "RSK1 activity, percentage of DMSO control", "setting": "RSK1", "result": 93, "unit": "percentage"},
      {"measurement": "DYRK2 activity, percentage of DMSO control", "setting": "DYRK2", "result": 113, "unit": "percentage"},
      {"measurement": "DDR2 activity, percentage of DMSO control", "setting": "DDR2", "result": 91, "unit": "percentage"},
      {"measurement": "JNK1 activity, percentage of DMSO control", "setting": "JNK1", "result": 100, "unit": "percentage"},
      {"measurement": "OSR1 activity, percentage of DMSO control", "setting": "OSR1", "result": 107, "unit": "percentage"},
      {"measurement": "ERK8 activity, percentage of DMSO control", "setting": "ERK8", "result": 98, "unit": "percentage"},
      {"measurement": "TBK1 activity, percentage of DMSO control", "setting": "TBK1", "result": 112, "unit": "percentage"},
      {"measurement": "CK1δ activity, percentage of DMSO control", "setting": "CK1δ", "result": 94, "unit": "percentage"},
      {"measurement": "SYK activity, percentage of DMSO control", "setting": "SYK", "result": 125, "unit": "percentage"},
      {"measurement": "HIPK2 activity, percentage of DMSO control", "setting": "HIPK2", "result": 107, "unit": "percentage"},
      {"measurement": "Lck activity, percentage of DMSO control", "setting": "Lck", "result": 90, "unit": "percentage"},
      {"measurement": "EPH-B4 activity, percentage of DMSO control", "setting": "EPH-B4", "result": 102, "unit": "percentage"},
      {"measurement": "PAK4 activity, percentage of DMSO control", "setting": "PAK4", "result": 110, "unit": "percentage"},
      {"measurement": "p38δ MAPK activity, percentage of DMSO control", "setting": "p38δ MAPK", "result": 113, "unit": "percentage"},
      {"measurement": "p38α MAPK activity, percentage of DMSO control", "setting": "p38α MAPK", "result": 118, "unit": "percentage"},
      {"measurement": "BRSK2 activity, percentage of DMSO control", "setting": "BRSK2", "result": 97, "unit": "percentage"},
      {"measurement": "CHK1 activity, percentage of DMSO control", "setting": "CHK1", "result": 106, "unit": "percentage"},
      {"measurement": "IRAK1 activity, percentage of DMSO control", "setting": "IRAK1", "result": 103, "unit": "percentage"},
      {"measurement": "PKCα activity, percentage of DMSO control", "setting": "PKCα", "result": 117, "unit": "percentage"},
      {"measurement": "PKD1 activity, percentage of DMSO control", "setting": "PKD1", "result": 94, "unit": "percentage"},
      {"measurement": "PDGFRA activity, percentage of DMSO control", "setting": "PDGFRA", "result": 109, "unit": "percentage"},
      {"measurement": "MELK activity, percentage of DMSO control", "setting": "MELK", "result": 99, "unit": "percentage"},
      {"measurement": "PIM1 activity, percentage of DMSO control", "setting": "PIM1", "result": 92, "unit": "percentage"},
      {"measurement": "PKA activity, percentage of DMSO control", "setting": "PKA", "result": 101, "unit": "percentage"},
      {"measurement": "MSK1 activity, percentage of DMSO control", "setting": "MSK1", "result": 111, "unit": "percentage"},
      {"measurement": "MLK3 activity, percentage of DMSO control", "setting": "MLK3", "result": 94, "unit": "percentage"},
      {"measurement": "TTBK2 activity, percentage of DMSO control", "setting": "TTBK2", "result": 102, "unit": "percentage"},
      {"measurement": "CLK2 activity, percentage of DMSO control", "setting": "CLK2", "result": 54, "unit": "percentage"},
      {"measurement": "PAK5 activity, percentage of DMSO control", "setting": "PAK5", "result": 95, "unit": "percentage"},
      {"measurement": "CDK2-Cyclin A activity, percentage of DMSO control", "setting": "CDK2-Cyclin A", "result": 96, "unit": "percentage"},
      {"measurement": "S6K1 activity, percentage of DMSO control", "setting": "S6K1", "result": 85, "unit": "percentage"},
      {"measurement": "MST3 activity, percentage of DMSO control", "setting": "MST3", "result": 111, "unit": "percentage"},
      {"measurement": "STK33 activity, percentage of DMSO control", "setting": "STK33", "result": 93, "unit": "percentage"},
      {"measurement": "TAK1 activity, percentage of DMSO control", "setting": "TAK1", "result": 109, "unit": "percentage"},
      {"measurement": "GCK activity, percentage of DMSO control", "setting": "GCK", "result": 126, "unit": "percentage"}
    ]},
    {"smiles": "CCC(=O)Nc1cccc(Oc2nc(Nc3ccc(N4CCN(C)CC4)cc3OC)ncc2Cl)c1", "note": "[WZ4003]", "values": [
      {"measurement": "ULK2 activity, percentage of DMSO control", "setting": "ULK2", "result": 37, "unit": "percentage"}
    ]}
  ]
}
